Measured values taken from publication PMC5786306, “An AKAP-Lbc-RhoA interaction inhibitor promotes the translocation of aquaporin-2 to the plasma membrane of renal collecting duct principal cells” (PLoS ONE, 2018).

Experiments:
GST = GST (Schistosoma japonicum, UniProt P08515); experiment: ITC control with GST alone; type: binding
Protocol: ITC measurements were essentially carried out as previously described. The stabilizing RhoA mutant F25N [41] was purified as a GST-RhoA fusion in its GDP-bound form (final gel filtration purification step in 20 mM HEPES, pH 7.5, 150 mM NaCl, 2 mM DTT, 50 μM GDP). In order to exchange GDP against GTPγS, GST-RhoA loaded with GDP was incubated for 20 min in ITC nucleotide exchange buffer (50 mM HEPES, pH 7.5, 20 mM EDTA) at 25°C followed by three dilution and concentration steps in Amicon tubes (10,000 MWCO) using ITC dialysis buffer (50 mM HEPES, pH 7.4, 150 mM NaCl, 5 mM MgCl2, 2 mM β-mercaptoethanol). The nucleotide-loading state was confirmed by HPLC. All proteins used in ITC measurements were dialyzed overnight against ITC dialysis buffer. Protein concentrations were determined with NanoDrop ND-1000. GDP or GTPγS (final concentration 2 mM) and DMSO (2%) were added to the proteins prior to the ITC measurements. Scaff10-8 was dissolved in the same buffer (including 2% DMSO and 2 mM GDP or GTPγS). ITC measurements were performed on a VP-ITC (GE Healthcare, München, DE) at 15°C. Titrations were conducted using 14.8 μM Scaff10-8 in the cell and 235 μM (GST control), 222 μM (GST-RhoA, GDP-bound) or 210 μM (GST-RhoA, GTPγS-bound) in the syringe. The cell was stirred at 351 rpm and a total of 27 x 10 μl injections were added to the cell, separated by 240 s of equilibration. […]

[1] = tested on: RhoA activity in IMCD cells; experiment: Rhotekin pull down of active RhoA in IMCD cells; type: cell-based, rat; conditions: 30 μM
Protocol: Western blotting for the detection of RhoA and Hsp90 and a Rhotekin pull down for the detection of active, GTP-bound RhoA were adapted from a procedure previously described by us. In brief, IMCD cells were cultured as described, DBcAMP and nystatin were removed on day twelve after seeding by exchange of medium for medium without the compounds. On the following day, Scaff10-8 was added to a final concentration of 30 μM or, as a control, the solvent DMSO (0.3%) for 1 h. Then cells were treated with forskolin (30 μM) for an additional 30 min, and subsequently incubated at 4°C in ice-cold Rhotekin buffer (50 mM Tris, pH 7.2; 1% (w/v) Triton X-100; 0.5% sodium deoxycholate; 500 mM NaCl; 10 mm MgCl2; PhosSTOP EASY (PhosSTOP EASY pack, Roche Diagnostics, Mannheim, DE; #REF04906837001), Complete mini EDTA-free (Complete mini EDTA-free, Roche Diagnostics, Mannheim, DE; #REF0693159001), for 10 min and lysed. Lysates (300–400 μg protein) were incubated with 300 μl of Rhotekin beads as previously described Proteins were eluted from beads with Laemmli buffer and analyzed by Western blotting. […]
Fig 10 Scaff10-8 inhibits activation of RhoA in primary IMCD cells. […] Signals were semiquantitatively analyzed by densitometry. […] Statistically significant differences were determined using one-way ANOVA with posthoc Bonferroni. […]

His6-GST fusion protein = His6-GST fusion protein (Schistosoma japonicum, UniProt P08515); experiment: HTRF control assay with His6-GST fusion protein; type: binding; conditions: control for interference with tags or antibodies
Sequence of His6-GST fusion protein (P08515 whole entry, the tested form may be a part): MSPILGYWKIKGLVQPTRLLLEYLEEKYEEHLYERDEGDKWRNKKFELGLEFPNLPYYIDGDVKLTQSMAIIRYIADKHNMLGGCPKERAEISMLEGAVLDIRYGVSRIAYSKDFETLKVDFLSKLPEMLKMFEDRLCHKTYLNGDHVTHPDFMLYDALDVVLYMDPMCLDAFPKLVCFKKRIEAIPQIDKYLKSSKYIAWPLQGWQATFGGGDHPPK
Protocol: The assay was essentially carried out as described. Scaff10 derivatives were added to His6-AKAP-Lbc/DHPH protein (250 nM final concentration) in HTRF buffer (PBS; 4 mM MgCl2; 0.05% Tween 20) in 384 well plates (Proxiplate-384 Plus, white, #6008289; Perkin Elmer LAS, Rodgau, Germany). Concentrations of Scaff10 derivatives ranged between 1.56–200 μM (2% DMSO final concentration); HTRF buffer with 2% DMSO served as a control. GST-RhoA (30 nM final concentration) in HTRF buffer and anti-GST antibody coupled to terbium (donor) and anti-His6-tag antibody coupled to XL665 (acceptor) were added to all wells (final antibody concentration: 2 μg/ml). After 1 h incubation at room temperature in the dark, FRET signals were recorded at 620 and 665 nm using a Genios Pro plate reader (Tecan Austria GmbH, Grödig, AT) and the ratios of […] to 620 nm were calculated. Wells containing no compound were set to 100% interaction of AKAP-Lbc/DHPH with RhoA, wells containing GST-RhoA only (without His6-AKAP-Lbc/DHPH) were set to 0% interaction. To exclude any interference of the tags and/or antibodies with Scaff10 derivatives, a His6-GST fusion protein replaced the two tagged proteins in a control assay. Wells containing His6-GST fusion protein were set to 100% interaction of His6-GST, wells containing no fusion protein were set to 0% interaction.

Sequence of GST (P08515 whole entry, the tested form may be a part): as above

COc1ccc(-c2coc3cc4oc(=O)c(CCC(=O)O)c(C)c4cc23)cc1 [Scaff10-8, 3-[3-(4-Methoxyphenyl)-5-methyl-7-oxo-furo[3,2-g]chromen-6-yl] propanoic acid]
binding to GST control (GST): did not bind | RhoA activity ([1]; 1 h): decreased RhoA activity | effect on RhoA inhibition by forskolin ([1]; 1 h plus forskolin 30 μM, 30 min): did not significantly enhance | interaction with His-GST fusion protein (His6-GST fusion protein): does not interact
